Source: the supplement of paper PMC10307832

Compound: CN(c1ncccc1CNc1nc(Nc2ccc3c(c2)CC(=O)N3)ncc1C(F)(F)F)S(C)(=O)=O + CS(=O)(=O)N1CCN(Cc2cc3nc(-c4cccc5[nH]ncc45)nc(N4CCOCC4)c3s2)CC1 [Pictilisib] (partner 1 µM)
Experiment: relative viability (nuclei count vs DMSO), 5 days (fraction); higher = more cells survive
Method in brief: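 Each reported value is a median over duplicate plates. It expresses relative viability: treated-well nuclei count divided by vehicle-well nuclei count. Lung cancer cell lines in 1536-well plates were dosed by pin tool a day after seeding, alone with one drug or with a fixed anchor-drug dose plus five library-drug doses (not always all listed) in √10 steps, and nuclei were counted after 5 days.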

| Cell Line | relative viability (first compound 0.01 µM) | relative viability (first compound 0.03162 µM) | relative viability (first compound 0.1 µM) | relative viability (first compound 0.3162 µM) | relative viability (first compound 1 µM) |
| --- | --- | --- | --- | --- | --- |
| 201T | 0.697 | 0.666 | 0.613 | 0.675 | 0.647 |
| A549 | 0.474 | 0.63 | 0.569 | 0.452 | 0.409 |
| A-427 | 0.69 | 0.753 | 0.638 | 0.73 | 0.667 |
| ABC-1 | 0.74 | 0.822 | 0.746 | 0.952 | 0.847 |
| BEN | 0.595 | 0.585 | 0.512 | 0.594 | 0.703 |
| CAL-12T | 0.43 | 0.305 | 0.28 | 0.318 | 0.498 |
| COR-L23 | 0.793 | 0.824 | 0.922 | 0.874 | 0.585 |
| COR-L 105 | 0.435 | 0.395 | 0.383 | 0.427 | 0.426 |
| Calu-6 | 0.926 | 0.986 | 0.929 | 0.874 | 0.845 |
| ChaGo-K-1 | 0.753 | 0.518 | 0.973 |  | 1.15 |
| EBC-1 | 0.365 | 0.325 | 0.391 | 0.36 | 0.305 |
| EKVX | 0.462 | 0.422 | 0.418 | 0.375 | 0.431 |
| EMC-BAC-2 | 0.576 | 0.505 | 0.465 | 0.528 | 0.5 |
| EPLC-272H | 0.256 | 0.269 | 0.298 | 0.209 | 0.336 |
| H3255 | 0.422 | 0.537 | 0.413 | 0.505 | 0.382 |
| HARA | 0.305 | 0.556 | 0.365 | 0.544 | 0.377 |
| HCC-15 | 0.817 | 0.68 | 0.711 | 0.716 | 0.622 |
| HCC-44 | 0.478 | 0.623 | 0.617 | 0.678 | 0.658 |
| HCC-78 | 0.228 | 0.167 | 0.216 | 0.188 | 0.165 |
| HCC-366 | 0.108 | 0.155 | 0.0871 | 0.197 | 0.19 |
| HCC-827 | 0.878 | 1.08 | 1.09 | 1.15 | 1.07 |
| HOP-62 | 0.784 | 0.899 | 0.793 | 0.853 | 0.643 |
| IA-LM | 0.348 | 0.292 | 0.309 | 0.32 | 0.276 |
| LC-2-ad | 0.567 | 0.552 | 0.647 | 0.928 | 0.66 |
| LCLC-97TM1 |  | 0.23 | 0.196 | 0.159 | 0.148 |
| LCLC-103H | 0.558 | 0.561 | 0.6 | 0.536 | 0.577 |

| Cell Line | relative viability (first compound 0.01 µM) | relative viability (first compound 0.03162 µM) | relative viability (first compound 0.1 µM) | relative viability (first compound 0.3162 µM) | relative viability (first compound 1 µM) |
| --- | --- | --- | --- | --- | --- |
| LK-2 | 0.585 | 0.625 | 0.586 | 0.794 | 0.462 |
| LOU-NH91 | 0.519 | 0.548 | 0.504 | 0.551 | 0.575 |
| LU99A | 0.314 | 0.357 | 0.342 | 0.373 | 0.335 |
| LXF-289 | 0.834 | 0.937 | 0.75 | 0.677 | 0.737 |
| NCI-H23 | 0.554 | 0.492 | 0.564 | 0.495 | 0.441 |
| NCI-H322M | 0.495 | 0.48 |  | 0.593 | 0.553 |
| NCI-H358 | 0.276 | 0.351 | 0.275 | 0.347 | 0.243 |
| NCI-H441 | 0.554 | 0.516 | 0.527 | 0.527 | 0.508 |
| NCI-H460 | 0.338 | 0.425 | 0.437 | 0.367 | 0.418 |
| NCI-H520 | 0.285 | 0.386 | 0.322 | 0.277 | 0.379 |
| NCI-H596 | 0.409 | 0.37 | 0.428 | 0.456 | 0.37 |
| NCI-H647 | 0.529 | 0.365 | 0.38 |  | 0.594 |
| NCI-H650 | 0.961 | 1.15 | 0.671 | 0.639 | 0.842 |
| NCI-H661 | 0.578 | 0.335 | 0.405 | 0.378 | 0.383 |
| NCI-H727 | 0.459 | 0.269 | 0.393 | 0.31 | 0.344 |
| NCI-H838 | 0.431 | 0.482 | 0.471 | 0.448 | 0.395 |
| NCI-H1299 | 0.754 | 0.768 | 0.809 | 0.739 | 0.693 |
| NCI-H1355 | 0.399 | 0.474 | 0.346 | 0.432 | 0.381 |
| NCI-H1395 | 0.569 | 0.655 | 0.605 | 0.668 | 0.661 |
| NCI-H1437 | 0.424 | 0.468 | 0.557 | 0.41 | 0.546 |
| NCI-H1563 | 0.602 | 0.629 | 0.657 | 0.722 | 0.662 |
| NCI-H1650 | 0.557 | 0.676 | 0.609 |  | 0.581 |
| NCI-H1651 | 0.523 | 0.617 | 0.601 | 0.596 | 0.546 |
| NCI-H1666 | 0.549 | 0.373 | 0.404 | 0.532 | 0.404 |
| NCI-H1703 | 0.266 | 0.243 | 0.248 | 0.229 | 0.235 |
| NCI-H1734 | 0.418 | 0.555 | 0.454 | 0.468 | 0.475 |

| Cell Line | relative viability (first compound 0.01 µM) | relative viability (first compound 0.03162 µM) | relative viability (first compound 0.1 µM) | relative viability (first compound 0.3162 µM) | relative viability (first compound 1 µM) |
| --- | --- | --- | --- | --- | --- |
| NCI-H1755 | 0.436 | 0.417 | 0.426 | 0.477 | 0.451 |
| NCI-H1792 | 0.263 | 0.281 | 0.323 | 0.306 | 0.332 |
| NCI-H1793 | 0.285 | 0.393 | 0.208 | 0.319 | 0.265 |
| NCI-H1915 | 1.01 | 0.826 | 0.905 | 1.01 | 0.939 |
| NCI-H1944 | 0.356 | 0.352 | 0.335 | 0.342 | 0.396 |
| NCI-H1975 | 0.278 | 0.282 | 0.337 | 0.268 | 0.281 |
| NCI-H1993 | 0.832 | 0.754 | 0.856 | 0.828 | 0.775 |
| NCI-H2009 | 0.793 | 0.91 | 0.745 | 0.95 | 0.958 |
| NCI-H2023 | 0.265 | 0.329 | 0.199 | 0.225 | 0.2 |
| NCI-H2085 | 0.449 | 0.49 | 0.624 | 0.469 | 0.515 |
| NCI-H2087 | 0.852 | 0.77 | 0.978 | 0.914 | 0.951 |
| NCI-H2126 | 0.495 | 0.469 | 0.452 | 0.533 | 0.459 |
| NCI-H2170 | 0.355 | 0.312 | 0.316 |  | 0.332 |
| NCI-H2228 | 0.422 | 0.453 | 0.376 | 0.358 | 0.294 |
| NCI-H2347 | 0.609 | 0.614 | 0.74 | 0.919 | 0.362 |
| NCI-H2405 | 0.552 | 0.393 | 0.42 | 0.383 | 0.376 |
| NCI-H3122 | 0.599 | 0.673 | 0.627 | 0.572 | 0.584 |
| PC-3 [JPC-3] | 0.747 | 0.723 | 0.75 | 0.782 | 0.71 |
| PC-14 | 0.829 | 0.872 | 0.716 | 0.66 | 0.533 |
| RERF-LC-KJ | 0.494 | 0.577 | 0.551 | 0.548 | 0.622 |
| SK-LU-1 | 0.519 | 0.53 | 0.473 | 0.554 | 0.423 |
| SK-MES-1 | 0.401 | 0.322 | 0.293 | 0.311 | 0.367 |
| SW 1573 | 0.584 | 0.52 | 0.422 | 0.573 | 0.454 |
| UMC-11 | 0.759 | 0.843 | 0.793 | 0.847 | 0.708 |
